According to patent US6369101B1, “Therapeutic method to treat herpes virus infection” (Regents of the University of Minnesota, priority 1999, dated 2002):
≈ marks a conversion by molar mass, not a printed value. Entries after “also recorded” stand apart in the source; their conditions may differ.

What was measured:
[1] = system: Primary Rabbit Kidney cells; assay: Cytotoxic effect in primary rabbit kidney cells; format: cell-based; conditions: primary rabbit kidney cells
Protocol: (§1) Human laryngeal epithelial carcinoma cells (HEp-2, ATCC, Rockville, Md.) were used for testing of antiviral compounds by cytopathic effect (CPE) inhibition and plaque reduction assay. […] HEp-2, African green monkey kidney cells (Vero, ATCC), HFF and primary rabbit kidney cells were used to determine the cytotoxic effect of compounds of formula I. These cells were propagated in Dulbeco's modified Eagle's medium (DMEM) (Sigma, USA) supplemented with 10% inactivated fetal calf serum (FCS), 25 mM HEPES, 0.2% sodium bicarbonate and 1% penicillin/-streptomycin at 37° C. in the presence of 5% CO2.
(§2) HFF, Vero and HEp-2 cells were seeded in 24-well tissue culture plates at a concentration of […] in DMEM containing 10% FCS and incubated for 24 hours at 37° C. in the presence of 5% CO2. To the monolayer of these cells 0.5, 1.0, 1.5 and 2.0 ml of solution of antiviral compounds were added in the respective wells in duplicate and the cells were then incubated in a 5% CO2 incubator at 37° C. for 72 hours. The cells were observed daily for any change in morphology. […] At the end of this time, the media-drug solution was removed and the cells washed. One ml of 0.25% trypsin was added to each well and incubated until the cells start to come off of the plate. The cells-media mixture was then pipetted up and down several times to resuspend the cells and 0.2 ml of the cell suspension was added to 9.8 ml of trypan blue and cells were counted using hemocytometer. Each sample was counted three times with three replicate wells per sample.

[2] = Cytotoxic effect in primary rabbit kidney cells; format: cell-based; conditions: primary rabbit kidney cells; Primary Rabbit Kidney cell line
Protocol: as §1, §2

Vero cells = assay: Cytotoxic effect in Vero cell line; format: cell-based, African green monkey; conditions: African green monkey kidney (Vero) cells
Protocol: as §1, §2

[3] = Cytotoxic effect in Vero cell line; format: cell-based, African green monkey; conditions: African green monkey, Vero cells; Vero cell line
Protocol: as §1, §2

HSV-2 (strain G) = assay: Plaque reduction assay, HSV-2 strain G in HEp-2 cells; format: cell-based, herpes simplex virus type 2; conditions: conc. per compound (ng/ml) (Acyclovir 250), HSV-2 virus control 47
Protocol: HEp-2 cells were grown to monolayer in 24 well tissue culture plates in DMEM containing 10% fetal calf serum at 37° C. for 24-36 hours in the presence of 5% CO2. The monolayer of HEp-2 cells was infected with 0.1 ml of HSV- 1 (strain F) or HSV-2 (strain G) containing 100 pfu. The viruses were allowed to adsorb for 1 hour at 37° C. in the presence of 5% CO2. All wells containing virus infected cells except virus control were overlaid with 0.9 ml of DMEM and 1 ml of test compound. The virus control and cell control received DMEM only. All microtiter plates were incubated at 37° C. in the presence of 5% CO2 and observed twice daily for 72 hours for viral CPE. At the end of the experiment, plates were stained with 0.1% crystal violet and the results were quantified by counting plaque forming units.

[4] = system: Primary human foreskin fibroblast cells (HFF); assay: Cell proliferation assay (cytotoxicity) in HFF cells; format: cell-based; conditions: HFF cells; solution conc. per compound (ng/ml) (Acyclovir 250); 2.0 ml dose
Protocol: as §1, §2

[5] = as above; format: cell-based, human; conditions: primary human foreskin fibroblast (HFF) cells; Human foreskin fibroblast cells; reduces growth of uninfected cells by 50%
Protocol: as §1, §2

HSV-1 strain E-377 = assay: CPE inhibition assay, HSV-1 E377 in human foreskin fibroblast cells; format: cell-based, herpes simplex virus type 1; for Qualitative CPE at 2.0 ml dose HSV-1 E377: key: +++ = Complete cytopathic effect; ++ = Moderate cytopathic effect; + = Minimum cytopathic effect; − = No cytopathic effect
Protocol: (§3) Stock solutions of the compounds used for the testing of antiviral activity against HSV-1 and HSV-2 were prepared in distilled water, filtered through 0.2 μm filter (Acrodisco®, Gelman Sciences, USA) and stored at room temperature until used.
(§4) Human laryngeal epithelial carcinoma cells (HEp-2, ATCC, Rockville, Md.) were used for testing of antiviral compounds by cytopathic effect (CPE) inhibition and plaque reduction assay. Primary human foreskin fibroblast cells (HFF) obtained from Dr. E. R. Kern (Department of Pediatrics, University of Alabama Medical School, 309 Bevill Biomedical Research Building, 845 19th Street South, Birmingham, Ala., 35294-2170), were used for cytopathic effect (CPE) inhibition assay. HEp-2, African green monkey kidney cells (Vero, ATCC), HFF and primary rabbit kidney cells were used to determine the cytotoxic effect of compounds of formula I. These cells were propagated in Dulbeco's modified Eagle's medium (DMEM) (Sigma, USA) supplemented with 10% inactivated fetal calf serum (FCS), 25 mM HEPES, 0.2% sodium bicarbonate and 1% penicillin/-streptomycin at 37° C. in the presence of 5% CO2.
(§5) The antiviral activity of the test compounds was determined against HSV-1 strain F, HSV-2 strain G (ATCC), HSV-1 strain E-377 and HSV-2 strain MS (Dr. E. R. Kern, see above), CMV strain AD 169 (NIH), HCMV (NIH), MCMV (NIH), and VZV strain Ellen (NIH). Highly infective virus stocks of HSV-1 and HSV-2 were prepared by infecting a confluent monolayer of HEp-2 (ATCC) or HFF in 150 cm^2 plastic tissue culture flasks (Falcon, USA) at a multiplicity of infection of 0.5 in DMEM supplemented with 10% inactivated fetal calf serum and 1% penicillin/streptomycin at 37° C. in the presence of 5% CO2. The infected cells were disrupted through three freeze/thaw cycles, and viruses were clarified from large cell debris by low speed centrifugation at 3000 rpm for 10 minutes. The virus suspension was separated, aliquoted and stored at −80° C. until assayed or used for animal infection. The stock HSV-1 (E377) and HSV-2 (MS strain) contained 3.5×10^8 and 1.1×10^7 pfu/ml respectively.
(§6) Low passage HFF cells were seeded into 96-well tissue culture plates 24 hours prior to use at a cell concentration of 2.5×10^4 cells per ml in 0.2 ml of DMEM supplemented with 10% fetal calf serum. After 24 hours of incubation at 37° C. in the presence of 5% CO2, medium was removed and the test compounds were diluted two-fold in DMEM in the 96-well tissue culture plate containing monolayer. […] For both HSV-1 and HSV-2 assays, the virus concentration utilized was 1000 pfu/ml and for HCMV, MCMV, and VZV assay 2500 pfu/ml were used. The plates were then incubated at 37° C. in the presence of 5% CO2 for two to three days for HSV-1 and HSV-2, 10 days for VZV and 14 days for HCMV and MCMV. The virus induced cytopathic effect (CPE) was monitored microscopically every day. CPE of HSV-1 was recognized by cell rounding and clumping, while HSV-2 formed large syncytia along with rounding and clumping of cells. […] EC50s were estimated from graphical plots of percent CPE against the concentration of the test compounds. The EC50s for each compound are the mean of EC50s for three or more independent experiments. After three days of incubation period, media was aspirated and the cells stained with a 0.1% crystal violet solution for 30 minutes. The stain was then removed and the plates were rinsed with tap water, air dried and retained.

[6] = system: Human laryngeal epithelial carcinoma cells (HEp-2); assay: Cytotoxicity in HEp-2 cells; format: cell-based
Protocol: as §1, §2

HSV-2 strain G = assay: CPE inhibition, HSV-2 strain G in HEp-2 cells; note: key: +++ = Complete cytopathic effect; ++ = Moderate cytopathic effect; + = Minimum cytopathic effect; − = No cytopathic effect; format: cell-based, herpes simplex virus type 2; conditions: conc. per compound (ng/ml)
Source text: as §4, §5, §6

HSV-2 strain MS = assay: CPE inhibition assay, HSV-2 MS in human foreskin fibroblast cells; format: cell-based, herpes simplex virus type 2; for Qualitative CPE at 2.0 ml dose HSV-2 MS: key: +++ = Complete cytopathic effect; ++ = Moderate cytopathic effect; + = Minimum cytopathic effect; − = No cytopathic effect
Protocol: as §3, §4, §5, §6

HSV-1 strain F = assay: CPE inhibition, HSV-1 strain F in HEp-2 cells; note: key: +++ = Complete cytopathic effect; ++ = Moderate cytopathic effect; + = Minimum cytopathic effect; − = No cytopathic effect; format: cell-based, herpes simplex virus type 1; conditions: conc. per compound (ng/ml)
Source text: as §4, §5, §6

[7] = HFF cells, solution conc. per compound (ng/ml) (Acyclovir 250), 2.0 ml dose

In the case of CC1(C)CCC23CC[C@]4(C)C(CCC5[C@@]6(C)CCC(O)C(C)(C)C6CC[C@]54C)C2C1OC3 (stereo partly drawn) [Allobetulin, 3β-hydroxy-19αH-19,28-epoxy-oleanane], the “cytotoxicity (in words)” value [1] is reported as “No cytotoxicity; also recorded: generally not toxic”, the CC50 at 72 h [2] is reported as over 0.3 µg/mL and the “cytotoxicity (in words)” value (Vero cells) is reported as “generally not toxic”. The CC50 at 72 h [3] was 0.3 µg/mL (≈ 0.678 µM), the “Plaque Reduction Assay Average pfu/10^5 Cells HSV-2 Strain G” value (HSV-2 (strain G)) was 17 pfu/10^5 Cells and the “Qualitative Cytotoxic Effect at 2.0 ml dose” value [4] was “−”. For the same compound, the CC50 at 72 h [5] was 0.3 µg/mL (≈ 0.678 µM), the “EC50 HSV-1 E377” value (HSV-1 strain E-377; CPE inhibition in HFF cells) was 0.3 µg/mL (≈ 0.678 µM) and the “Qualitative CPE at 2.0 ml dose HSV-1 E377” value (HSV-1 strain E-377; [7]) was “+++”. The EC50 (HSV-1 strain E-377; Human alphaherpesvirus 1, HFF, CPE inhibition in HFF cells, read-out: EC50 HSV-1 E377) was about 0.3 µg/mL (≈ 0.678 µM), the “cytotoxicity (in words)” value ([6]; HEp-2 (human epithelial) cells) was “less cytotoxicity; also recorded: generally not toxic” and the “Cell Cytotoxicity” value ([6]; HEp-2 cells, conc. per compound (ng/ml)) was “−”. The “Cytopathic Effect (CPE) Inhibition HSV-2 Strain G” value (HSV-2 strain G) was “++”, the “EC50 HSV-2 MS” value (HSV-2 strain MS; CPE inhibition in HFF cells) was 0.225 µg/mL (≈ 0.508 µM) and the “Qualitative CPE at 2.0 ml dose HSV-2 MS” value (HSV-2 strain MS; [7]) was “++”. The EC50 (HSV-2 strain MS; Human alphaherpesvirus 2, HFF, CPE inhibition in HFF cells, read-out: EC50 HSV-2 MS) was about 0.225 µg/mL (≈ 0.508 µM) and the “Cytopathic Effect (CPE) Inhibition HSV-1 Strain F” value (HSV-1 strain F) was “++”.
